Experimental findings from the supplement of paper PMC10307832 are described below.

What all share (experiment): relative viability (nuclei count vs DMSO), 5 days (fraction); higher = more cells survive
Compound in assay [1]: C[C@H]([C@@H](C(=O)N)NC(=O)[C@@H]1CSSC[C@@H](C(=O)N[C@H](C(=O)N[C@@H](C(=O)N[C@H](C(=O)N1)CCCCN)CC2=CNC3=CC=CC=C32)CC4=CC=C(C=C4)O)NC(=O)[C@@H](CC5=CC=CC=C5)N)O [CAP-232] + O=C(CCCCCCC(=O)Nc1ccccc1)NO [Vorinostat] (partner 1 µM)
An outline of the steps:
(§1)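 Cells from lung cancer lines were seeded into 1536-well plates and, one day later, dosed by pin tool. Treatments were either a single drug or a fixed dose of an anchor drug with five library-drug doses (not always all listed) in √10 steps. After 5 days, nuclei were stained in a one-step fixation (final 0.05% Triton X-100, 1% formaldehyde, 1 ug/ml Hoechst) and counted on 4× images, and relative viability is the treated-to-vehicle nuclei ratio, as the median of duplicate plates.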

Compound in assay [2]: C[C@H]([C@@H](C(=O)N)NC(=O)[C@@H]1CSSC[C@@H](C(=O)N[C@H](C(=O)N[C@@H](C(=O)N[C@H](C(=O)N1)CCCCN)CC2=CNC3=CC=CC=C32)CC4=CC=C(C=C4)O)NC(=O)[C@@H](CC5=CC=CC=C5)N)O [CAP-232] + N=C(N)NC(=N)NCCc1ccccc1 [Phenformin] (partner 250 µM)
An outline of the steps: as §1

Compound in assay [3]: C[C@H]([C@@H](C(=O)N)NC(=O)[C@@H]1CSSC[C@@H](C(=O)N[C@H](C(=O)N[C@@H](C(=O)N[C@H](C(=O)N1)CCCCN)CC2=CNC3=CC=CC=C32)CC4=CC=C(C=C4)O)NC(=O)[C@@H](CC5=CC=CC=C5)N)O [CAP-232] + CS(=O)(=O)N1CCN(Cc2cc3nc(-c4cccc5[nH]ncc45)nc(N4CCOCC4)c3s2)CC1 [Pictilisib] (partner 1 µM)
An outline of the steps:
as §1

Compound in assay [4]: C[C@H]([C@@H](C(=O)N)NC(=O)[C@@H]1CSSC[C@@H](C(=O)N[C@H](C(=O)N[C@@H](C(=O)N[C@H](C(=O)N1)CCCCN)CC2=CNC3=CC=CC=C32)CC4=CC=C(C=C4)O)NC(=O)[C@@H](CC5=CC=CC=C5)N)O [CAP-232] + Cc1cc(Nc2cc(N3CCN(C)CC3)nc(Sc3ccc(NC(=O)C4CC4)cc3)n2)n[nH]1 [Tozasertib] (partner 0.1 µM)
An outline of the steps:
as §1

Compound in assay [5]: C[C@H]([C@@H](C(=O)N)NC(=O)[C@@H]1CSSC[C@@H](C(=O)N[C@H](C(=O)N[C@@H](C(=O)N[C@H](C(=O)N1)CCCCN)CC2=CNC3=CC=CC=C32)CC4=CC=C(C=C4)O)NC(=O)[C@@H](CC5=CC=CC=C5)N)O [CAP-232] + Cc1nc(NC(=O)N2CCC[C@H]2C(N)=O)sc1-c1ccnc(C(C)(C)C(F)(F)F)c1 [Alpelisib] (partner 2 µM)
An outline of the steps: as §1

On to LOU-NH91, for which the relative viability is 1.02 in assay [1] (first compound 0.4 µM); 0.882 in assay [1] (first compound 1.265 µM); 0.931 in assay [1] (first compound 4 µM); 0.415 in assay [1] (first compound 12.65 µM); 0.725 in assay [2] (first compound 0.4 µM); 0.752 in assay [2] (first compound 1.265 µM). Moreover, the relative viability in assay [2] (first compound 4 µM) came out at 0.769; in assay [2] (first compound 12.65 µM), 0.487; in assay [3] (first compound 0.4 µM), 0.479; in assay [3] (first compound 1.265 µM), 0.512; in assay [3] (first compound 4 µM), 0.501; in assay [3] (first compound 12.65 µM) it was 0.438. Further, the relative viability in assay [4] (first compound 0.4 µM) came out at 0.574; in assay [4] (first compound 1.265 µM), 0.68; in assay [4] (first compound 4 µM), 0.618; in assay [4] (first compound 12.65 µM), 0.511; in assay [5] (first compound 0.4 µM) it was 0.738; in assay [5] (first compound 1.265 µM), 0.771. In addition, the relative viability amounted to 0.699 in assay [5] (first compound 4 µM) and 0.58 in assay [5] (first compound 12.65 µM).
For LU99A, the relative viability in assay [1] (first compound 0.4 µM) was 0.533; in assay [1] (first compound 1.265 µM) it was 0.492; in assay [1] (first compound 4 µM) it was 0.589; in assay [1] (first compound 12.65 µM), 0.533; in assay [2] (first compound 0.4 µM), 0.866; in assay [2] (first compound 1.265 µM) it was 0.751. In addition, the relative viability in assay [2] (first compound 4 µM) turned out to be 0.839; in assay [2] (first compound 12.65 µM) it was 0.8; in assay [3] (first compound 0.4 µM), 0.376; in assay [3] (first compound 1.265 µM) it was 0.307; in assay [3] (first compound 4 µM) it was 0.328; in assay [3] (first compound 12.65 µM), 0.292. Further, the relative viability in assay [4] (first compound 0.4 µM) was 0.253; in assay [4] (first compound 1.265 µM) it was 0.263; in assay [4] (first compound 4 µM) it was 0.296; in assay [4] (first compound 12.65 µM), 0.287; in assay [5] (first compound 0.4 µM), 0.515; in assay [5] (first compound 1.265 µM), 0.517. Also, the relative viability in assay [5] (first compound 4 µM) is 0.471; in assay [5] (first compound 12.65 µM), 0.497.
In the case of LXF-289, the relative viability was 0.89 in assay [1] (first compound 0.4 µM); 0.785 in assay [1] (first compound 1.265 µM); 0.772 in assay [1] (first compound 4 µM); 0.774 in assay [1] (first compound 12.65 µM); 0.508 in assay [2] (first compound 0.4 µM); 0.519 in assay [2] (first compound 1.265 µM). Besides, the relative viability in assay [2] (first compound 4 µM) was found to be 0.512; in assay [2] (first compound 12.65 µM) it was 0.554; in assay [3] (first compound 0.4 µM), 0.817; in assay [3] (first compound 1.265 µM) it was 0.768; in assay [3] (first compound 4 µM), 0.755; in assay [3] (first compound 12.65 µM), 0.798. The relative viability in assay [4] (first compound 0.4 µM) stood at 0.206; in assay [4] (first compound 1.265 µM) it was 0.176; in assay [4] (first compound 4 µM) it was 0.213; in assay [4] (first compound 12.65 µM), 0.149; in assay [5] (first compound 0.4 µM), 1.13; in assay [5] (first compound 1.265 µM), 1.08. Moreover, the relative viability in assay [5] (first compound 4 µM) stood at 1.1; in assay [5] (first compound 12.65 µM), 1.02.
For the cell line NCI-H23, the relative viability was 0.578 in assay [1] (first compound 0.4 µM); 0.534 in assay [1] (first compound 1.265 µM); 0.558 in assay [1] (first compound 4 µM); 0.54 in assay [1] (first compound 12.65 µM); 0.84 in assay [2] (first compound 0.4 µM); 0.813 in assay [2] (first compound 1.265 µM). In addition, the relative viability in assay [2] (first compound 4 µM) turned out to be 0.833; in assay [2] (first compound 12.65 µM), 0.678; in assay [3] (first compound 0.4 µM), 0.405; in assay [3] (first compound 1.265 µM), 0.491; in assay [3] (first compound 4 µM), 0.504; in assay [3] (first compound 12.65 µM), 0.462. The relative viability in assay [4] (first compound 0.4 µM) stood at 0.416; in assay [4] (first compound 1.265 µM), 0.386; in assay [4] (first compound 4 µM), 0.384; in assay [4] (first compound 12.65 µM), 0.309; in assay [5] (first compound 0.4 µM), 0.848; in assay [5] (first compound 1.265 µM) it was 0.743. The figures for the relative viability in assay [5] (first compound 4 µM) and in assay [5] (first compound 12.65 µM) were 0.714 and 0.668, respectively.
As for NCI-H322M, the relative viability in assay [1] (first compound 0.4 µM) was 0.91; in assay [1] (first compound 1.265 µM) it was 0.894; in assay [1] (first compound 4 µM), 0.932; in assay [1] (first compound 12.65 µM), 1.11; in assay [2] (first compound 0.4 µM), 0.873; in assay [2] (first compound 1.265 µM) it was 0.709. The relative viability in assay [2] (first compound 4 µM) was determined as 0.759; in assay [2] (first compound 12.65 µM) it was 0.862; in assay [3] (first compound 0.4 µM), 0.54; in assay [3] (first compound 1.265 µM), 0.556; in assay [3] (first compound 4 µM), 0.519; in assay [3] (first compound 12.65 µM), 0.487. Further, the relative viability worked out at 0.448 in assay [4] (first compound 0.4 µM); 0.5 in assay [4] (first compound 1.265 µM); 0.515 in assay [4] (first compound 4 µM); 0.498 in assay [4] (first compound 12.65 µM); 0.778 in assay [5] (first compound 0.4 µM); 0.753 in assay [5] (first compound 1.265 µM). For the same cell line, the relative viability in assay [5] (first compound 4 µM) is 0.709; in assay [5] (first compound 12.65 µM), 0.755.
Turning to NCI-H358, the relative viability is 0.755 in assay [1] (first compound 0.4 µM); 0.709 in assay [1] (first compound 1.265 µM); 0.71 in assay [1] (first compound 4 µM); 0.375 in assay [1] (first compound 12.65 µM); 0.319 in assay [2] (first compound 0.4 µM); 0.295 in assay [2] (first compound 1.265 µM). Further, the relative viability in assay [2] (first compound 4 µM) came to 0.278; in assay [2] (first compound 12.65 µM), 0.315; in assay [3] (first compound 0.4 µM), 0.28; in assay [3] (first compound 1.265 µM), 0.301; in assay [3] (first compound 4 µM), 0.298; in assay [3] (first compound 12.65 µM) it was 0.402. In addition, the relative viability stood at 0.102 in assay [4] (first compound 0.4 µM); 0.115 in assay [4] (first compound 1.265 µM); 0.089 in assay [4] (first compound 4 µM); 0.0797 in assay [4] (first compound 12.65 µM); 0.508 in assay [5] (first compound 0.4 µM); 0.821 in assay [5] (first compound 1.265 µM). Also, the results for the relative viability in assay [5] (first compound 4 µM) and in assay [5] (first compound 12.65 µM) were 0.868 and 0.789, respectively.
As to NCI-H441, the relative viability in assay [1] (first compound 0.4 µM) turned out to be 0.879; in assay [1] (first compound 1.265 µM) it was 0.824; in assay [1] (first compound 4 µM), 0.936; in assay [1] (first compound 12.65 µM), 0.77; in assay [2] (first compound 0.4 µM) it was 0.82; in assay [2] (first compound 1.265 µM), 0.897. Further, the relative viability in assay [2] (first compound 4 µM) was 0.982; in assay [2] (first compound 12.65 µM), 0.864; in assay [3] (first compound 0.4 µM), 0.411; in assay [3] (first compound 1.265 µM), 0.462; in assay [3] (first compound 4 µM) it was 0.412; in assay [3] (first compound 12.65 µM) it was 0.385. Also, the relative viability in assay [4] (first compound 0.4 µM) is 0.628; in assay [4] (first compound 1.265 µM), 0.58; in assay [4] (first compound 4 µM) it was 0.571; in assay [4] (first compound 12.65 µM), 0.653; in assay [5] (first compound 0.4 µM) it was 0.757; in assay [5] (first compound 1.265 µM), 0.912. The relative viability worked out at 0.788 in assay [5] (first compound 4 µM) and 0.843 in assay [5] (first compound 12.65 µM).
